# ChEMBL document CHEMBL1156829 (Proc Natl Acad Sci U S A, 2008)
# How the values were obtained:
# Plasmodium falciparum [1] = assay: NOVARTIS: Inhibition of Plasmodium falciparum 3D7 (drug-susceptible) proliferation in erythrocyte-based infection assay; assay type: functional, organism-based
# Plasmodium falciparum [2] = assay: NOVARTIS: Inhibition of Plasmodium falciparum W2 (drug-resistant) proliferation in erythrocyte-based infection assay; assay type: functional, organism-based
# [3] = NOVARTIS: Cytotoxicity against human hepatocellular carcinoma cell line (Huh7); assay type: toxicity, cell-based, Huh-7; conditions: Huh7 cells (hepatocellular carcinoma cell line)
# [4] = Plasmodium falciparum, W2, read-out: EC50
SMILES,"EC50 (Plasmodium falciparum [1]; Plasmodium falciparum, 3D7) [nM]",EC50 (Plasmodium falciparum [2]; [4]) [nM],CC50 [3] [nM],EC50 (Plasmodium falciparum [2]),EC50 (Plasmodium falciparum [1]) [nM],EC50 (Plasmodium falciparum [2]; read-out: EC50) [nM]
c1cc2cc3ccc(OCCN4CCCCC4)cc3nc2cc1OCCN1CCCCC1,348,772,> 10000,–,–,–
CCN(CC)CCCN(Cc1cc2c(C)cc(C)cc2[nH]c1=O)C(=S)NCCCN(C)C,2090,1000,> 100000,–,–,–
Cc1ccc(-c2nnc(Nc3ccc(F)cc3)c3ccccc23)cc1S(=O)(=O)NCC1CCCO1 (stereo unspecified),1700,3110,> 100000,–,–,–
CCOC(=O)c1sc(NC(=O)CSc2nnc(CNC(=O)COc3ccccc3)n2C)c(C(=O)OCC)c1C,> 1080,> 1250,> 10000,–,–,–
CC1(C)Cc2c(oc3ncn(CCn4cnc5oc6c(c5c4=N)CC(C)(C)SC6)c(=N)c23)CS1,> 12500,9740,> 100000,–,–,–
CNC1CC2OC(C)(C1OC)n1c3ccccc3c3c4c(c5c6ccccc6n2c5c31)C(=O)NC4O (stereo unspecified),190,> 195,[…],–,–,–
Clc1ccc(Nc2nc(Nc3ccc(Cl)cc3)c3ccccc3n2)cc1,148,110,19600,–,–,–
N#Cc1c(N)nc(SCC(=O)c2ccc(Br)cc2)c(C#N)c1-c1ccccc1,581,560,> 56600,–,–,–
CC(C)CNC(=O)c1cnc(NCCCN2CCCCC2C)nc1NC1CCCC1 (stereo unspecified),910,52.8,> 10000,–,–,–
C/C=C/C(C(=O)NCCCC)N1C(=O)c2cc(NC(C)=O)ccc2NC(=O)[C@@H]1CCC(=O)O (stereo partly specified),> 1500,49.9,442,–,–,–
COc1cccc(-c2ccc(O)c(CNCC3CC4C=CC3C43CC3)c2)n1 (stereo unspecified),153,19.9,> 85900,–,–,–
COc1ccc(C(=O)NC(c2ccc(C)cc2)c2cc(Cl)c3cccnc3c2O)cc1 (stereo unspecified),2420,2700,> 100000,–,–,–
CC(C)CC1=Nc2cc(C(=O)NC(C)C)ccc2CN1Cc1ccccc1,> 1030,> 1250,> 10000,–,–,–
C/C=C/C(C(=O)NCCCC)N1C(=O)c2cc(NC(C)=O)ccc2NC(=O)[C@@H]1C (stereo partly specified),199,4.57,7590,–,–,–
COC(=O)c1c(NC(=O)c2ccc(S(=O)(=O)N3CCOCC3)cc2)sc2c1CCN(C(C)=O)C2,8660,878,> 100000,–,–,–
COc1cc(OC)cc(N2CCN(CCNCCOc3ccccc3)[C@@H](c3ccccc3)C2)c1,> 1250,> 635,> 10000,–,–,–
Clc1cc(N2CCCCC2)c(Cl)nn1,> 1250,> 892,> 10000,–,–,–
Cc1cccn2c(=O)c3cc(C(=O)NCc4ccco4)c(=N)n(CCc4ccccc4)c3nc12,388,865,> 100000,–,–,–
CC(O)c1ccc(NC(=O)c2cnn3c2NC(c2ccco2)CC3C(F)(F)F)cc1 (stereo unspecified),> 1250,> 675,> 10000,–,–,–
COc1ccccc1NC1=CC(=NS(=O)(=O)c2ccccc2)c2ccccc2C1=O,224,288,13600,–,–,–
CCC(C(=O)NCc1ccc(OC)c(OC)c1)n1nc(C)c2c(C)n(-c3ccc(C)cc3)nc2c1=O (stereo unspecified),273,299,> 100000,–,–,–
COc1cc(OC)cc(-n2nc(C(=O)NCCCN3CC(C)CC(C)C3)c3ccccc3c2=O)c1 (stereo unspecified),> 12500,2440,> 100000,–,–,–
CC[C@H]1CN2CC[C@@H]1C[C@@H]2[C@@H](O)c1ccnc2ccc(OC)cc12,31.8,57.9,> 10000,–,–,–

SMILES,"EC50 (Plasmodium falciparum [1]; Plasmodium falciparum, 3D7) [nM]",EC50 (Plasmodium falciparum [2]; [4]) [nM],CC50 [3] [nM],EC50 (Plasmodium falciparum [2]),EC50 (Plasmodium falciparum [1]) [nM],EC50 (Plasmodium falciparum [2]; read-out: EC50) [nM]
CCN(CC)C/C=C/C1(O)c2ccccc2-c2ccccc21,1010,221,> 10000,–,–,–
Cc1ccc(C(=O)CSc2nc(N)c(C#N)c(-c3cccs3)c2C#N)cc1,> 5000,> 12500,> 100000,–,–,–
Cc1ccc(NC(=O)N2CCN(C(=O)c3nc(-c4ccccc4)nc(C)c3C(=O)OC(C)C)CC2C)cc1 (stereo unspecified),441,171,> 10000,–,–,–
COc1ccc2sc(Nc3nc(-c4ccccn4)cs3)nc2c1,118,125,4400,–,–,–
COC(=O)c1ccc2c(=O)n(Cc3ccco3)c(SCC(=O)n3nc(N)cc3C)nc2c1,337,819,> 100000,–,–,–
CCCCn1c(=N)n(CC(O)c2ccc(Br)cc2)c2ccccc21 (stereo unspecified),466,141,22500,–,–,–
O=C(C=Cc1ccccc1)NNC(=O)c1cccnc1,> 12500,1010,> 100000,–,–,–
O=C(CCN1C(=O)C2CCCCC2C1=O)N1CCc2ccccc2C1 (stereo unspecified),> 4850,7490,> 100000,–,–,–
Cc1cc(Cl)c(S(=O)(=O)N2CCSCC2)cc1OCC(=O)NC1CCCCC1,186,153,> 100000,–,–,–
OC(CNCc1ccco1)Cn1c2ccc(Cl)cc2c2cc(Cl)ccc21 (stereo unspecified),5050,881,> 100000,–,–,–
COC(=O)C1=C(C)NC(=Cc2cc(C)n(-c3cc(C)ccc3C)c2C)C1=O,9.53,18.4,> 100000,–,–,–
C=CCn1nc(C(=O)N2CCCC2)c2c1CCC(N1CCCCCC1)C2 (stereo unspecified),772,39.8,> 10000,–,–,–
CCC(=O)N(C1=C(NC)C(=O)c2ccccc2C1=O)C(C)C,8.99,36.5,563,–,–,–
COc1ccc(C(NC(=O)COc2ccccc2)c2cc(Cl)c3cccnc3c2O)cc1 (stereo unspecified),3570,918,> 100000,–,–,–
COc1ccc(NC(=O)CCCCCn2c(SCC(=O)NCC3CCCO3)nc3ccsc3c2=O)cc1 (stereo unspecified),> 725,> 1320,> 10000,–,–,–
Cc1ccn2c(NC(C)(C)CC(C)(C)C)c(-c3ccccc3OC(=O)C34CC5CC(CC(C5)C3)C4)nc2c1,788,214,> 10000,–,–,–
CCOC(=O)C1=C(c2ccccc2)N=c2sc(=Cc3cc(OC)c(OC)c(OC)c3)c(=O)n2C1c1c(OC)ccc2ccccc12 (stereo unspecified),> 7820,–,> 100000,No fit,–,–
C=C1[C@@H](C)[C@H]2[C@H](Cc3ccccc3)NC(=O)[C@]23C(OC(C)=O)C=C[C@@](C)(O)C(=O)[C@@H](C)CC=C[C@H]3[C@@H]1O (stereo partly specified),1170,711,> 10000,–,–,–
COc1ccc(C2CC(=O)C3=C(C2)NC(C)=C(C(=O)OC(C)C)C3c2ccccc2F)cc1OC (stereo unspecified),34.7,33.2,7320,–,–,–
Oc1ccc(-c2cccnc2)cc1CNCC1CC2C=CC1C21CC1 (stereo unspecified),835,< 23.3,> 10000,–,–,–
CCCCCN(C(=O)c1ccc(C)cc1)C(C)c1nc2ccccc2c(=O)n1-c1ccccc1CC (stereo unspecified),> 1620,895,> 10000,–,–,–
O=C(Cn1c(=O)oc2cc(Cl)ccc21)c1ccccc1,> 12500,4500,28400,–,–,–
COc1cccc(Cn2c3cc(C)sc3c3cnn(C)c(=O)c32)c1,497,583,68600,–,–,–

SMILES,"EC50 (Plasmodium falciparum [1]; Plasmodium falciparum, 3D7) [nM]",EC50 (Plasmodium falciparum [2]; [4]) [nM],CC50 [3] [nM],EC50 (Plasmodium falciparum [2]),EC50 (Plasmodium falciparum [1]) [nM],EC50 (Plasmodium falciparum [2]; read-out: EC50) [nM]
CC[n+]1c(/C=C/c2cc(Br)ccc2OC)ccc2ccccc21,155,202,> 10000,–,–,–
CC(C)N(CC(=O)Nc1cc(C(C)(C)C)nn1-c1ccc(Cl)cc1)C(=O)c1cccc2ccccc12,1210,> 1240,> 10000,–,–,–
CCOC(=O)c1c(NC(C)=O)sc2c1CCN(C(C)C)C2,1560,3410,> 100000,–,–,–
CC1CC(C)CN(c2ccc([N+](=O)[O-])cc2-c2nnn[nH]2)C1 (stereo unspecified),> 831,> 1610,> 10000,–,–,–
COc1ccc(C(=O)Oc2ccccc2-c2nc3ccccn3c2NC(C)(C)CC(C)(C)C)cc1,> 1600,7.51,> 10000,–,–,–
CCOc1cccc2c(C)nc(NC(=N)N)nc12,358,1540,56500,–,–,–
CCOC(=O)c1sc(NC(=O)CSc2nnc(CNC(=O)c3ccco3)n2-c2ccc(F)cc2)c(C(=O)OCC)c1C,> 1250,> 1060,> 10000,–,–,–
O=C(NCCc1ccccc1)c1cnc(NCCCN2CCCC2)nc1NCC1CCCCC1,603,> 42.5,> 10000,–,–,–
Cc1cc(Nc2cccc(C(F)(F)F)c2)nc(N)n1,676,1860,39600,–,–,–
C=CCNC(=O)c1cc2c(=O)n3ccccc3nc2n(CCc2ccccc2)c1=N,1530,2320,> 100000,–,–,–
Oc1ccc(Cl)cc1C1CC(c2ccc(Cl)cc2)=NC(c2ccc(Cl)cc2)N1 (stereo unspecified),813,783,34700,–,–,–
CC[n+]1cc(C)ccc1C=Cc1ccc(N(C)C)cc1,–,–,15200,–,195,232
COc1ccccc1C(=O)NN=C(C)c1cccnc1,> 1250,> 602,> 10000,–,–,–
COc1ccc(Br)cc1S(=O)(=O)N1CCCc2ccccc21,9950,11400,> 100000,–,–,–
Cc1ccc(-c2c3c4n(c(-c5ccc(Cl)cc5)cn4c2C(=O)Nc2ccccc2Cl)CCCC3)cc1,269,1160,> 100000,–,–,–
Cc1cc(N)c2ccccc2[n+]1CCCCCCCCCC[n+]1c(C)cc(N)c2ccccc21 [DEQUALINIUM CHLORIDE],61.4,19.7,31000,–,–,–
CCc1cccc(NC(=O)CCCn2c(=O)c3cccn3c3ccccc32)c1,> 1560,826,> 10000,–,–,–
Cc1ccc2c(c1)N=C(c1ccc([N+](=O)[O-])cc1)CO2,> 1300,> 12500,> 100000,–,–,–
CCCCSc1ncnc2c1c(-c1ccccc1)cn2-c1cccc(F)c1,> 1250,> 974,> 10000,–,–,–
Cc1cc(C)cc(NC2=C(N)C(=O)c3ccccc3C2=O)c1,969,551,> 100000,–,–,–
Cc1noc(-c2ccc(O)cc2O)c1-c1ccc2c(c1)OCCO2,248,204,15200,–,–,–
